# Source: ChEMBL document CHEMBL1137466, “5'-Phenyl-3'H-spiro[indoline-3,2'-[1,3,4]thiadiazol]-2-one inhibitors of ADAMTS-5 (aggrecanase-2)” (Bioorg Med Chem Lett, 2007)
# Columns and labels:
# [1] = biological target: T1, A disintegrin and metalloproteinase with thrombospondin motifs 5 (Homo sapiens, UniProt Q9UNA0); assay: Inhibition of ADAMTS5 by FRET assay
# T1 sequence (Q9UNA0 whole entry): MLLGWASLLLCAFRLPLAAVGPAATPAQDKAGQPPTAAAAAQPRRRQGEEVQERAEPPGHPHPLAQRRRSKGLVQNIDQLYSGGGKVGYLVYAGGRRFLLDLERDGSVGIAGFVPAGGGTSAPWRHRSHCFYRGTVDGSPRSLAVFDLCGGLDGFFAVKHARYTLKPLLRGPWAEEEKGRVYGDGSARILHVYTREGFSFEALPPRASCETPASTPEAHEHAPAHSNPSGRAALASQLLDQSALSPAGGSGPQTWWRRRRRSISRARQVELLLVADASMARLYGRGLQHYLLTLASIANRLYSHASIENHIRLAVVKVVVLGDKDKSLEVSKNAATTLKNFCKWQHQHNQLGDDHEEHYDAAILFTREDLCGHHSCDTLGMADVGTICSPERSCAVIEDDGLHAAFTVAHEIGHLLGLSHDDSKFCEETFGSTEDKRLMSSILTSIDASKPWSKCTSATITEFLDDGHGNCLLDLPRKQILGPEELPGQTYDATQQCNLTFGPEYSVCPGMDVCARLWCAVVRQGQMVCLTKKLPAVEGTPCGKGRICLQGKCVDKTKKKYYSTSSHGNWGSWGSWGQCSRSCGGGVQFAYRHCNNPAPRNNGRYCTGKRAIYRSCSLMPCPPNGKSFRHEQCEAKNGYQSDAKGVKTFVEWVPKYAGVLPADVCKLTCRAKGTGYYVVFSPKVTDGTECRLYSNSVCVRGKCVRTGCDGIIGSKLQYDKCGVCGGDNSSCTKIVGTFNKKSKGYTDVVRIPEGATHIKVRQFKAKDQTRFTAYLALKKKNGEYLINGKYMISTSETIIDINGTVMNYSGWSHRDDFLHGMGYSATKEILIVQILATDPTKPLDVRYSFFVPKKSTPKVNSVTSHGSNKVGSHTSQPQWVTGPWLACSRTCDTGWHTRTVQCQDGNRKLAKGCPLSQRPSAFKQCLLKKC
# [2] = biological target: T2, A disintegrin and metalloproteinase with thrombospondin motifs 4 (Homo sapiens, UniProt O75173); assay: Inhibition of ADAMTS4
# T2 sequence (O75173 whole entry): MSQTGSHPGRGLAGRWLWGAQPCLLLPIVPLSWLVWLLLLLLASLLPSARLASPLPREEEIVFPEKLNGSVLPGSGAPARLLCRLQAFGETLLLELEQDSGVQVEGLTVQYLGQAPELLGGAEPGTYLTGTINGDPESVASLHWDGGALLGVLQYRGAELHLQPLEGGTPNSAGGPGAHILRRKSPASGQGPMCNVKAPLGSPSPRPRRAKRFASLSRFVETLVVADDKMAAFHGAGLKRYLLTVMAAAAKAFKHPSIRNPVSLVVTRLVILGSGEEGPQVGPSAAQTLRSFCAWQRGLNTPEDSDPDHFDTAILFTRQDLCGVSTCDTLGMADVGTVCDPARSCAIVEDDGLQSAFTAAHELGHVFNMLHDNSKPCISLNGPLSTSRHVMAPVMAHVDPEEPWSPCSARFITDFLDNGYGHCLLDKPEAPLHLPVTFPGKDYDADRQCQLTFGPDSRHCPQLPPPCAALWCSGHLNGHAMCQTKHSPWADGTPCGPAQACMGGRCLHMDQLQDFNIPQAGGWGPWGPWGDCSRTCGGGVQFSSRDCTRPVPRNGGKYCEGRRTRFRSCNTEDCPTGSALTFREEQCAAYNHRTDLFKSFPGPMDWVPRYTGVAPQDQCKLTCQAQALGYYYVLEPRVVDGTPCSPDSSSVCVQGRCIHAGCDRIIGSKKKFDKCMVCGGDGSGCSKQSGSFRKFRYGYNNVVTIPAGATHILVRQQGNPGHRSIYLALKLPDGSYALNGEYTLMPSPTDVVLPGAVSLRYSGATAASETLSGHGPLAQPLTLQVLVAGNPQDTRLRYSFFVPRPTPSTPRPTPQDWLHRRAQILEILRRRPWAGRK
# Collagenase 3 = Collagenase 3 (Homo sapiens, UniProt P45452); assay: Inhibition of MMP13
# [3] = biological target: Macrophage metalloelastase (Homo sapiens, UniProt P39900); assay: Inhibition of MMP12
# Chain of Macrophage metalloelastase (P39900 whole entry): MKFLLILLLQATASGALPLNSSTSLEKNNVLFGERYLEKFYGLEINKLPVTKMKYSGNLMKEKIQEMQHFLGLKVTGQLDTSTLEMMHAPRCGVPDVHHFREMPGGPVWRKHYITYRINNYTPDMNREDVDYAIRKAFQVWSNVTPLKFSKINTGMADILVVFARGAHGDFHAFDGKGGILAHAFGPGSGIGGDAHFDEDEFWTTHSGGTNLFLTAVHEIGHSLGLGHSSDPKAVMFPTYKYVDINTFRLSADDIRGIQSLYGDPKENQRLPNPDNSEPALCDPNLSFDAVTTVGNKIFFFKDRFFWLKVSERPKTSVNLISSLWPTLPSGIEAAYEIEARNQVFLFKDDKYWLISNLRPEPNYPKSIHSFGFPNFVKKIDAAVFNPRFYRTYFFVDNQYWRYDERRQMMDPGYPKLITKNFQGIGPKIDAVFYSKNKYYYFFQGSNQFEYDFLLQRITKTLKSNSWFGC
SMILES,IC50 [1],IC50 [2],IC50 (Collagenase 3),IC50 [3]
Cc1ccc(C2=NNC3(S2)C(=O)Nc2ccccc23)cc1 (stereo unspecified),3.7 µM,–,–,–
CCc1ccc2c(c1)C1(NN=C(c3ccc(C)cc3)S1)C(=O)N2 (stereo unspecified),1.9 µM,–,–,–
CCc1ccc2c(c1)C1(NN=C(c3ccc(OC)cc3)S1)C(=O)N2 (stereo unspecified),1.4 µM,–,–,–
COc1ccc(C2=NNC3(S2)C(=O)Nc2ccc(Cl)cc23)cc1 (stereo unspecified),2 µM,–,–,–
CCCc1ccc2c(c1)NC(=O)C21NN=C(c2ccc(OC)cc2)S1 (stereo unspecified),–,> 22 µM,> 22 µM,1.7 µM
COc1ccc(C2=NNC3(S2)C(=O)Nc2cc(Cl)ccc23)cc1 (stereo unspecified),1.2 µM,–,–,–
Cc1ccc(C2=NNC3(S2)C(=O)N(c2ccccc2C)c2ccc(C)cc23)cc1 (stereo unspecified),1.2 µM,–,–,–
COc1ccc(C2=NNC3(S2)C(=O)N(C)c2ccccc23)cc1 (stereo unspecified),7.5 µM,–,–,–
COc1ccc(C2=NNC3(S2)C(=O)N(Cc2ccccc2)c2ccccc23)cc1 (stereo unspecified),0.87 µM,> 22 µM,> 100 µM,5.6 µM
COc1ccc(C2=NNC3(S2)C(=O)N(c2ccccc2C)c2ccc(C)cc23)cc1 (stereo unspecified),–,10.5 µM,> 100 µM,> 22 µM
CCCc1cc2c(cc1C)C1(NN=C(c3ccc(OC)cc3)S1)C(=O)N2Cc1ccccc1 (stereo unspecified),0.95 µM,–,–,–
CCc1ccc2c(c1)C1(NN=C(c3ccccc3)S1)C(=O)N2 (stereo unspecified),9.6 µM,–,–,–
Cc1ccc(C2=NNC3(S2)C(=O)Nc2ccc(C)cc23)cc1 (stereo unspecified),3 µM,–,–,–
COc1ccc(C2=NNC3(S2)C(=O)Nc2ccc(C)cc23)cc1 (stereo unspecified),2.5 µM,–,–,–
CC(C)N1C(=O)C2(NN=C(c3ccccc3)S2)c2ccccc21 (stereo unspecified),3.1 µM,–,–,–
COc1ccc(C2=NNC3(S2)C(=O)N(Cc2ccccc2)c2ccc(C)cc23)cc1 (stereo unspecified),–,–,> 100 µM,> 22 µM
O=C1Nc2ccccc2C12NN=C(c1ccccc1)S2 (stereo unspecified),24.2 µM,–,–,–
Cc1ccc(C2=NNC3(S2)C(=O)N(C)c2ccccc23)cc1 (stereo unspecified),4.6 µM,–,–,–
